According to US11866420B2, “Hydrochloride salt forms of a sulfonamide structured kinase inhibitor” (Aurigene Oncology Limited, priority 2018, dated 2024):
Where a name gives a salt, the structure may show the parent alone.

Assays:
[1] = Stability of the crystalline forms in different water activity conditions (slurry experiments); type: physicochemical; details: for Resulting crystalline form: HCl added; for Water activity conditions under which the crystalline form is favoured: water/methanol slurries with HCl, room temperature, 3 days
Text: Stability of the crystalline forms in different water activity conditions was studied in slurry experiments where crystalline forms 1 and 3 were stirred for 3 days at room temperature in mixtures of water and methanol in the presence of HCl to maintain acidic conditions.

[2] = Thermogravimetric analysis (TGA), onset of disproportionation; type: physicochemical; details: for Onset temperature of disproportionation: TGA with head space mass spectroscopy, start of rapid evaporation of Cl ion
Procedure: The TGA thermograms for the crystalline forms 1, 3, 5 and 8 were collected on TGA equipment (TA Instruments). The gases recovered during each run were analyzed by head space mass spectroscopy (Agilent GS system). The measurement allowed to register the temperature at which rapid evaporation of Cl ion (disproportionation) started.
The onset temperature of disproportionation for crystalline forms 1, 3, 5 and 8 was determined based on TGA measurements.

[3] = Long-term stability of forms 3 and 8 at different storage conditions; type: physicochemical
Procedure: Long-term stability of crystalline forms 3 and 8 at different storage conditions was studied. The conditions were a) 25° C./RH 60% in a closed vessel, b) 40° C./RH 75% in a closed vessel, c) 40° C./RH 75% in an open vessel and d) 25° C./RH 100% in an open vessel.

[4] = Bioavailability after oral administration; type: in vivo
Water solubility = type: physicochemical; details: physiological pH range
[5] = Hygroscopicity (Dynamic Vapour Sorption); type: physicochemical; details: between 20%-90% RH, T=25° C., DVS mass change
Procedure: The hygroscopicity of the crystalline forms 1, 3, 5 and 8 was evaluated using DVS-1 Dynamic Vapour Sorption equipment (Surface Measurement Systems Ltd, London, UK). The amount of 5-10 mg of each crystalline form was equilibrated at 20% RH. The mass change (%) was recorded at 30%, 40%, 50%, 60%, 70%, 80% and 90% RH at T=25° C. The equilibration condition at each point was dm/dt≤0.0003.

SMILES: Cn1cc(-c2ccc3c(c2)ncn3-c2cc(NS(=O)(=O)C3CC3)cc(-c3ccc(F)cc3F)c2)cn1 [Form 3, N-(2′,4′-difluoro-5-(5-(1-methyl-1H-pyrazol-4-yl)-1H-benzo[d]imidazol-1-yl)-[1,1′-biphenyl]-3-yl)cyclopropanesulfonamide hydrochloride]
- Resulting crystalline form ([1]; 4.7% H2O in MeOH, water activity 0.17, slurry 3 days at room temperature): Form 3
- Resulting crystalline form ([1]; 10% H2O in MeOH, water activity 0.31, slurry 3 days at room temperature): Form 3
- Resulting crystalline form ([1]; MeOH, water activity 0, slurry stirred 3 days at room temperature): Form 3
- Water activity conditions under which the crystalline form is favoured ([1]; listed as crystalline form 3, hydrochloride): ambient to about 0.3
- Onset temperature of disproportionation ([2]; listed as 3, hydrochloride): 171 °C
- Long-term stability: stable up to ([3]; 25° C./RH 60% closed vessel, listed as Crystalline form 3, hydrochloride): Stable up to 36 months
- Long-term stability: time after which form changed ([3]; 25° C./RH 100% open vessel): 1 week
- Long-term stability: change of crystalline form ([3]; 25° C./RH 100% open vessel, hydrochloride): 5
- Long-term stability: change of crystalline form ([3]; 25° C./RH 100% open vessel, listed as Crystalline form 3, hydrochloride): Change to form 5 after
- Long-term stability: stable up to ([3]; 40° C./RH 75% closed vessel, listed as Crystalline form 3, hydrochloride): Stable up to 12 months
- Long-term stability: time after which form changed ([3]; 40° C./RH 75% open vessel): 1 days
- Long-term stability: change of crystalline form ([3]; 40° C./RH 75% open vessel, hydrochloride): changes to form 8
- Long-term stability: change of crystalline form ([3]; 40° C./RH 75% open vessel, listed as Crystalline form 3, hydrochloride): Change to form 8 after

SMILES: Cn1cc(-c2ccc3c(c2)ncn3-c2cc(NS(=O)(=O)C3CC3)cc(-c3ccc(F)cc3F)c2)cn1 [Compound (I), N-(2′,4′-difluoro-5-(5-(1-methyl-1H-pyrazol-4-yl)-1H-benzo[d]imidazol-1-yl)-[1,1′-biphenyl]-3-yl)cyclopropanesulfonamide]
- Bioavailability after oral administration [4]: very low
- Solubility in water (Water solubility): practically insoluble

SMILES: Cn1cc(-c2ccc3c(c2)ncn3-c2cc(NS(=O)(=O)C3CC3)cc(-c3ccc(F)cc3F)c2)cn1 [Form 8, N-(2′,4′-difluoro-5-(5-(1-methyl-1H-pyrazol-4-yl)-1H-benzo[d]imidazol-1-yl)-[1,1′-biphenyl]-3-yl)cyclopropanesulfonamide hydrochloride]
- Hygroscopicity ([5]; listed as form 8, hydrochloride): practically non-hygroscopic
- Onset temperature of disproportionation ([2]; listed as 8, hydrochloride): 187 °C
- Thermal stability against disproportionation ([2]; TGA, compared among crystalline forms 1, 3, 5 and 8): highest thermal stability
- Long-term stability: stable up to ([3]; 25° C./RH 60% closed vessel, listed as Crystalline form 8, hydrochloride): ≥ 36 months
- Long-term stability: stable up to ([3]; 25° C./RH 100% open vessel): ≥ 2 months
- Long-term stability: stable up to ([3]; 40° C./RH 75% closed vessel, listed as Crystalline form 8, hydrochloride): ≥ 6 months
- Long-term stability: stable up to ([3]; 40° C./RH 75% open vessel): ≥ 1 month
- Stability at storage conditions (overall) ([3]; all storage conditions (25° C./RH 60%, 40° C./RH 75% closed and open, 25° C./RH 100% open)): good stability

SMILES: Cn1cc(-c2ccc3c(c2)ncn3-c2cc(NS(=O)(=O)C3CC3)cc(-c3ccc(F)cc3F)c2)cn1 [Form 5, N-(2′,4′-difluoro-5-(5-(1-methyl-1H-pyrazol-4-yl)-1H-benzo[d]imidazol-1-yl)-[1,1′-biphenyl]-3-yl)cyclopropanesulfonamide hydrochloride]
- Water activity conditions under which the crystalline form is favoured ([1]; listed as crystalline form 5, hydrochloride): about 0.9
- Onset temperature of disproportionation ([2]; listed as 5, hydrochloride): 145 °C

SMILES: Cn1cc(-c2ccc3c(c2)ncn3-c2cc(NS(=O)(=O)C3CC3)cc(-c3ccc(F)cc3F)c2)cn1 [Form 1, N-(2′,4′-difluoro-5-(5-(1-methyl-1H-pyrazol-4-yl)-1H-benzo[d]imidazol-1-yl)-[1,1′-biphenyl]-3-yl)cyclopropanesulfonamide hydrochloride]
- Resulting crystalline form ([1]; 16% H2O in MeOH, water activity 0.44, slurry 3 days at room temperature): Form 3 + Form 8
- Resulting crystalline form ([1]; 26.6% H2O in MeOH, water activity 0.59, slurry 3 days at room temperature): Form 3 + Form 8
- Resulting crystalline form ([1]; 45.2% H2O in MeOH, water activity 0.75, slurry 3 days at room temperature): Form 8
- Resulting crystalline form ([1]; 71.5% H2O in MeOH, water activity 0.88, slurry 3 days at room temperature): Form 5
- Hygroscopicity ([5]; hydrochloride): particularly low hygroscopicity
- Onset temperature of disproportionation ([2]; listed as 1, hydrochloride): 148 °C
